# Results published in patent publication US11717554B2, “Method for preventing or treating hangover symptom(s) associated with consumption of alcoholic beverage(s)” (MAX R&D LLC, priority 2019, dated 2023).
# Read-outs that look alike come from different tables or passages of the source.
# Assays:
# acetaldehyde = assay: MTCG in urine of rats treated with ethanol, disulfiram and CG or CbG; conditions: for oral bioavailability (in words): inferred from urinary MTCG excretion
# Method: In the first study, rats were administered disulfiram, an ALDH inhibitor and alcohol deterrent drug used to inhibit the metabolism of ethanol at the acetaldehyde stage, thus producing an adverse reaction that discourages further alcohol drinking (reviewed in Wikipedia, 2017). Treatment of rats with disulfiram causes a buildup of acetaldehyde in blood (Nagasawa et al, 1978). The rats were then administered CbG, orally, to determine whether CbG, following its in vivo conversion to CG, can sequester the acetaldehyde produced in the disulfiram-treated rats to a product that is excreted into the urine. Note that CbG in vivo may be reduced 2 CG. The product expected from this sequestration reaction is MTCG (vide supra). The MTCG in rat urine, collected over 24 hours following the ethanol dose, was quantitatively analyzed by LC/MS.
# isoamyl aldehyde = conditions: for BTCG excreted in urine: LC/MS
# From the text: In the second study, isoamyl alcohol replaced ethanol, and cyanamide, another clinically-used ALDH inhibitor (Tottmar et al., 1977), replaced disulfiram to block the further metabolism of isoamyl aldehyde derived from isoamyl alcohol (FIG. 3). Isoamyl alcohol is the most abundant small, branched-chain alcohol congener present in bourbon (Damrau and Liddy, 1960). […] The excreted product in urine here would be 2-isoobutylthiazolidine-4-carbonylglycine, viz., BTCG (FIG. 1). The urines were analyzed for BTCG by LC/MS as above.
# [1] = Urinary excretion and metabolic fate of MTCA in rats; assay type: in vivo
# From the text: We examined cysteine (the natural “L’ form), a semi-essential sulfhydryl amino acid, as a sequestering agent for acetaldehyde (Nagasawa et al., 1975). Indeed, cysteine readily condensed with acetaldehyde in aqueous solution to form a cyclic product, 2-methylthiazolidine-4 carboxylic acid (MTCA). […] We, therefore, prepared and administered radio-labeled MTCA (^14C at the 2-position) to a rat to follow its metabolic course (Nagasawa et al., 1984).
# [2] = rat biological fluids; cited from earlier work
# [3] = Stability of MTCG in 0.1 N HCl; assay type: physicochemical
# From the text: Although identified in urine, the long-term stability of MTCG in urine is still a question. MTCG is found to be stable in 0.1 N HCl, so we plan to collect the rat urine in acidified containers on ice. Presence of MTCG will be determined using a HPLC/MS method to obtain quantitative data of MTCG in rat urine.
structure (smiles),measurement,setting,value
"N[C@@H](CS)C(=O)NCC(=O)O [CG, cysteinylglycine]","urinary MTCG excretion, CG group (Group A) compared with disulfiram and ethanol only (Group C)","acetaldehyde; rats, disulfiram and ethanol, 24 hour urine",not statistically significant
same,oral bioavailability (in words),acetaldehyde; rats,poor oral bioavailability
"NC(CSSCC(N)C(=O)NCC(=O)O)C(=O)NCC(=O)O (centres unmarked) [CbG, cystinyl-bis-glycine]",BTCG excreted in urine,"isoamyl aldehyde; Group A: cyanamide, isoamyl alcohol and CbG","excreted BTCG in the urine, albeit minimally"
same,condition of animals,"isoamyl aldehyde; Group A: rats receiving cyanamide, isoamyl alcohol and CbG, group without CbG was comatose (3 of 7) with one death",normal although hypoactive
same,BTCG excreted in urine,"isoamyl aldehyde; Group C: isoamyl alcohol and CbG, no cyanamide",no BTCG could be detected in urine
same,condition of animals,"isoamyl aldehyde; Group C: rats receiving isoamyl alcohol and CbG, no cyanamide",normal but more active
same,urinary excretion of BTCG compared to MTCG of the first study,"isoamyl aldehyde; cyanamide, CbG, isoamyl alcohol vs disulfiram, CbG, ethanol (nanograms of BTCG vs. micrograms of MTCG)",more than 3 orders of magnitude lower
same,urinary excretion of MTCG relative to CG administration,"acetaldehyde; rats given disulfiram and ethanol, oral CbG (Group B) vs CG (Group A), urine collected over 24 hours, LC/MS",4.25 times greater
same,oral bioavailability (in words),acetaldehyde; rats,more orally bioavailable than CG
N[C@@H](CS)C(=O)O [L-cysteine],MTCA in urine after ethanol and L-cysteine,[1]; rats administered ethanol and L-cysteine,could not find MTCA in the urine
"CC1NC(C(=O)O)CS1 (centres unmarked) [MTCA, 2-methylthiazolidine-4 carboxylic acid]",metabolic fate of radiolabel,"[1]; rat, in vivo",most of the radiolabel appeared as expired ^14CO2
same,MTCA in urine after administration of MTCA,"[1]; rats, MTCA 400 mg/kg",no MTCA in the urine
"CC1NC(C(=O)NCC(=O)O)CS1 (centres unmarked) [MTCG, 2-methylthiazolidine-4-carbonylglycine]","stability in biological fluids of rats, including urine",[2],stable
same,stability in 0.1 N HCl,[3],stable
